Numbers after ± are expanded uncertainties.
Tests used:
[1] = 101 kPa, Liquid; for speed of sound: Sing-around technique in a fixed-path interferometer; for mass density: Vibrating tube method
[2] = xn = mol fraction of the nth substance listed; conditions: 101 kPa, Liquid, x1 = 1; for speed of sound: Sing-around technique in a fixed-path interferometer; for mass density: Vibrating tube method

Row | SMILES | speed of sound ([1]; 288.15 K) [m/s] | mass density ([1]; 288.15 K) [kg/m3] | speed of sound ([1]; 293.15 K) [m/s] | mass density ([1]; 293.15 K) [kg/m3] | speed of sound ([1]; 298.15 K) [m/s] | mass density ([1]; 298.15 K) [kg/m3] | speed of sound ([1]; 303.15 K) [m/s] | mass density ([1]; 303.15 K) [kg/m3] | speed of sound ([1]; 308.15 K) [m/s] | mass density ([1]; 308.15 K) [kg/m3] | speed of sound ([1]; 313.15 K) [m/s] | mass density ([1]; 313.15 K) [kg/m3] | speed of sound ([1]; 318.15 K) [m/s] | mass density ([1]; 318.15 K) [kg/m3] | also measured
1 | CCCCn1cc[n+](C)c1.F[B-](F)(F)F [1-butyl-3-methylimidazolium tetrafluoroborate] | 1589 ± 5 | 1206.51 ± 1.3 | 1577 ± 5 | 1202.95 ± 1.3 | 1565 ± 5 | 1199.39 ± 1.3 | 1554 ± 5 | 1195.82 ± 1.3 | 1542 ± 5 | 1192.27 ± 1.3 | 1531 ± 5 | 1188.72 ± 1.2 | 1520 ± 5 | 1185.17 ± 1.2 | –
2 | CCCCn1cc[n+](C)c1.F[B-](F)(F)F [1-butyl-3-methylimidazolium tetrafluoroborate] + COCCO | – | – | – | – | – | – | – | – | – | – | – | – | – | – | speed of sound ([2]; 288.15 K): 1589 ± 5 m/s; mass density ([2]; 288.15 K): 1206.51 ± 1.3 kg/m3; speed of sound ([2]; 293.15 K): 1577 ± 5 m/s; mass density ([2]; 293.15 K): 1202.95 ± 1.3 kg/m3; speed of sound ([2]; 298.15 K): 1565 ± 5 m/s; mass density ([2]; 298.15 K): 1199.39 ± 1.3 kg/m3; speed of sound ([2]; 303.15 K): 1554 ± 5 m/s; mass density ([2]; 303.15 K): 1195.82 ± 1.3 kg/m3; speed of sound ([2]; 308.15 K): 1542 ± 5 m/s; mass density ([2]; 308.15 K): 1192.27 ± 1.3 kg/m3; speed of sound ([2]; 313.15 K): 1531 ± 5 m/s; mass density ([2]; 313.15 K): 1188.72 ± 1.2 kg/m3; speed of sound ([2]; 318.15 K): 1520 ± 5 m/s; mass density ([2]; 318.15 K): 1185.17 ± 1.2 kg/m3
3 | COCCOCCO [2-(2-methoxyethoxy)ethanol] | 1451 ± 5 | 1024.6 ± 0.89 | 1434 ± 5 | 1020.2 ± 0.88 | 1416 ± 5 | 1015.79 ± 0.87 | 1399 ± 5 | 1011.36 ± 0.86 | 1382 ± 5 | 1006.92 ± 0.85 | 1366 ± 5 | 1002.47 ± 0.84 | 1349 ± 5 | 998.009 ± 0.83 | –
4 | COCCOCCOCCO [2-[2-(2-methoxyethoxy)ethoxy]ethanol] | 1470 ± 5 | 1050.1 ± 2.1 | 1452 ± 5 | 1045.75 ± 2.1 | 1436 ± 5 | 1041.32 ± 2.1 | 1421 ± 5 | 1036.84 ± 2 | 1408 ± 5 | 1032.27 ± 2 | 1393 ± 5 | 1027.76 ± 2 | 1376 ± 5 | 1023.3 ± 2 | –
5 | COCCO [2-methoxyethan-1-ol] | 1380 ± 5 | 969.794 ± 1.8 | 1367 ± 5 | 965.063 ± 1.8 | 1351 ± 5 | 960.447 ± 1.8 | 1337 ± 5 | 955.825 ± 1.7 | 1321 ± 5 | 951.214 ± 1.7 | 1304 ± 5 | 946.562 ± 1.7 | 1287 ± 5 | 941.864 ± 1.7 | –

From the NIST ThermoML archive (doi:10.1021/je2010209)
